In patent US10023558B2, “Compounds” (CHIESI FARMACEUTICI S.P.A., priority 2016, dated 2018):
pIC50: −log10 of the molar value.

Each compound was assayed against T1, human neutrophil elastase (HNE) (Homo sapiens, UniProt P08246) (assay: HNE Enzyme Assay (fluorogenic peptide substrate MeOSuc-Ala-Ala-Pro-Val-AMC)). Conditions: human leukocyte elastase 0.00072 U/mL, substrate 100 μM, 25° C., 30 minutes, at least two separate experiments; read-out: HNE inhibition (IC50 values).
T1 construct: purchased Sigma E8140
T1 sequence (P08246 30-247 limits assumed): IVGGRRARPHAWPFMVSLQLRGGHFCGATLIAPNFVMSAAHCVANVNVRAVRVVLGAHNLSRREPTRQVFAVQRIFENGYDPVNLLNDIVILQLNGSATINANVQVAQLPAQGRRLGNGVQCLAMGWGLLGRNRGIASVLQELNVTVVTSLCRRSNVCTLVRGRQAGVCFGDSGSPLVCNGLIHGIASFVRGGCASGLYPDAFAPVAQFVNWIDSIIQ
Format: biochemical
Procedure, shortened: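 Human leukocyte elastase (0.00072 U/mL) with 100 μM MeOSuc-AAPV-AMC in Tris pH 7.5 buffer with NaCl, CaCl2, Brij-35, 1% DMSO, 30 min at 25° C, stopped with soybean trypsin inhibitor. AMC fluorescence (ex 380/em 460 nm); IC50 from concentration-response as % inhibition of control, at least two experiments.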
In the case of CC[C@H](NC(=O)n1c(-c2ccnn2-c2ccc(C#N)cc2)c(C)n(-c2cccc(C(F)(F)F)c2)c1=O)c1ncc(C[N+](C)(C)C)o1 [Example 74, [2-((S)-1-{[5-[2-(4-Cyano-phenyl)-2H-pyrazol-3-yl]-4-methyl-2-oxo-3-(3-trifluoromethyl-phenyl)-2,3-dihydro-imidazole-1-carbonyl]-amino}-propyl)-oxazol-5-ylmethyl]-trimethyl-ammonium benzene sulfonate], the pIC50 was greater than 9.00.
Work on Cc1cc(C[N+](C)(C)[C@H]2CC[C@H](NC(=O)n3c(-c4ccnn4-c4ccc(C#N)cc4)c(C)n(-c4cccc(C(F)(F)F)c4)c3=O)CC2)no1 [Example 75, (4-{[5-[2-(4-Cyano-phenyl)-2H-pyrazol-3-yl]-4-methyl-2-oxo-3-(3-trifluoromethyl-phenyl)-2,3-dihydro-imidazole-1-carbonyl]-amino}-cyclohexyl)-dimethyl-(5-methyl-isoxazol-3-ylmethyl)-ammonium chloride] yielded a pIC50 greater than 9.00.
Work on Cc1cc(C[N+](C)(C)[C@H]2CC[C@H](NC(=O)n3c(-c4ccnn4-c4ccc(C#N)cc4)c(C)n(-c4cccc(C(F)(F)F)c4)c3=O)CC2)n(C)n1 [Example 76, (4-{[5-[2-(4-Cyano-phenyl)-2H-pyrazol-3-yl]-4-methyl-2-oxo-3-(3-trifluoromethyl-phenyl)-2,3-dihydro-imidazole-1-carbonyl]-amino}-cyclohexyl)-(2,5-dimethyl-2H-pyrazol-3-ylmethyl)-dimethyl-ammonium chloride] yielded a pIC50 greater than 9.00.
Work on Cc1c(-c2ccnn2-c2ccc(C#N)cc2)n(C(=O)N[C@H]2CC[C@H](C(=O)NCC[N+](C)(C)C)CC2)c(=O)n1-c1cccc(C(F)(F)F)c1 [Example 77, {2-[(Trans-4-{[5-[2-(4-cyano-phenyl)-2H-pyrazol-3-yl]-4-methyl-2-oxo-3-(3-trifluoromethyl-phenyl)-2,3-dihydro-imidazole-1-carbonyl]-amino}-cyclohexanecarbonyl)-amino]-ethyl}-trimethyl-ammonium benzene sulfonate] yielded a pIC50 greater than 9.00.
For Cc1c(-c2ccnn2-c2ccc(C#N)cc2)n(C(=O)NC(C)(C)c2ncc(C[N+](C)(C)C)o2)c(=O)n1-c1cccc(C(F)(F)F)c1 [Example 78, [2-(1-{[5-[2-(4-Cyano-phenyl)-2H-pyrazol-3-yl]-4-methyl-2-oxo-3-(3-trifluoromethyl-phenyl)-2,3-dihydro-imidazole-1-carbonyl]-amino}-1-methyl-ethyl)-oxazol-5-ylmethyl]-trimethyl-ammonium benzene sulfonate], the pIC50 was greater than 9.00.
Cc1c(-c2ccnn2-c2ccc(C#N)cc2)n(C(=O)NC2(c3ncc(C[N+](C)(C)C)o3)CC2)c(=O)n1-c1cccc(C(F)(F)F)c1 [Example 79, [2-(1-{[5-[2-(4-Cyano-phenyl)-2H-pyrazol-3-yl]-4-methyl-2-oxo-3-(3-trifluoromethyl-phenyl)-2,3-dihydro-imidazole-1-carbonyl]-amino}-cyclopropyl)-oxazol-5-ylmethyl]-trimethyl-ammonium benzene sulfonate] was tested, and the pIC50 was greater than 9.00.
Work on Cc1c(-c2ccnn2-c2ccc(C#N)cc2)n(C(=O)N[C@H]2CC[C@@H](C(=O)NCC[N+](C)(C)C)CC2)c(=O)n1-c1cccc(C(F)(F)F)c1 [Example 80, {2-[(Cis-4-{[5-[2-(4-cyano-phenyl)-2H-pyrazol-3-yl]-4-methyl-2-oxo-3-(3-trifluoromethyl-phenyl)-2,3-dihydro-imidazole-1-carbonyl]-amino}-cyclohexanecarbonyl)-amino]-ethyl}-trimethyl-ammonium benzene sulfonate] yielded a pIC50 of 8.00 to 9.00.
Compound Cc1c(-c2ccnn2-c2ccc(C#N)cc2)n(C(=O)N[C@H]2CC[C@H](C(=O)OCC[N+](C)(C)C)CC2)c(=O)n1-c1cccc(C(F)(F)F)c1 [Example 82, [2-(Trans-4-{[5-[2-(4-cyano-phenyl)-2H-pyrazol-3-yl]-4-methyl-2-oxo-3-(3-trifluoromethyl-phenyl)-2,3-dihydro-imidazole-1-carbonyl]-amino}-cyclohexanecarbonyloxy)-ethyl]-trimethyl-ammonium benzene sulfonate] has a pIC50 greater than 9.00.
Cc1c(-c2ccnn2-c2ccc(C#N)cc2)n(C(=O)N[C@H]2C[C@H](C(=O)NCC[N+](C)(C)C)C2)c(=O)n1-c1cccc(C(F)(F)F)c1 [Example 83, {2-[(Trans-3-{[5-[2-(4-cyano-phenyl)-2H-pyrazol-3-yl]-4-methyl-2-oxo-3-(3-trifluoromethyl-phenyl)-2,3-dihydro-imidazole-1-carbonyl]-amino}-cyclobutanecarbonyl)-amino]-ethyl}-trimethyl-ammonium benzene sulfonate] showed a pIC50 greater than 9.00.
For Cc1c(-c2ccnn2-c2ccc(C#N)cc2)n(C(=O)NC2(C)CCN(C(=O)C[N+](C)(C)C)CC2)c(=O)n1-c1cccc(C(F)(F)F)c1 [Example 84, [2-(4-{[5-[2-(4-Cyano-phenyl)-2H-pyrazol-3-yl]-4-methyl-2-oxo-3-(3-trifluoromethyl-phenyl)-2,3-dihydro-imidazole-1-carbonyl]-amino}-4-methyl-piperidin-1-yl)-2-oxo-ethyl]-trimethyl-ammonium benzene sulfonate], the pIC50 was greater than 9.00.
Cc1c(-c2ccnn2-c2ccc(C#N)cc2)n(C(=O)N[C@H]2CC[C@H](CNC(=O)C[N+](C)(C)C)CC2)c(=O)n1-c1cccc(C(F)(F)F)c1 [Example 86, {[(Trans-4-{[5-[2-(4-cyano-phenyl)-2H-pyrazol-3-yl]-4-methyl-2-oxo-3-(3-trifluoromethyl-phenyl)-2,3-dihydro-imidazole-1-carbonyl]-amino}-cyclohexylmethyl)-carbamoyl]-methyl}-trimethyl-ammonium benzene sulfonate] gave a pIC50 greater than 9.00.
Compound Cc1c(-c2ccnn2-c2ccc(C#N)cc2)n(C(=O)N[C@H]2CC[C@H](NC(=O)C[N+](C)(C)C)CC2)c(=O)n1-c1cccc(C(F)(F)F)c1 [Example 87, [(Trans-4-{[5-[2-(4-cyano-phenyl)-2H-pyrazol-3-yl]-4-methyl-2-oxo-3-(3-trifluoromethyl-phenyl)-2,3-dihydro-imidazole-1-carbonyl]-amino}-cyclohexylcarbamoyl)-methyl]-trimethyl-ammonium benzene sulfonate] has a pIC50 greater than 9.00.
Cc1c(-c2ccnn2-c2ccc(C#N)cc2)n(C(=O)N[C@H]2CC[C@H](C(=O)N3CCC([N+](C)(C)C)CC3)CC2)c(=O)n1-c1cccc(C(F)(F)F)c1 [Example 88, [1-(Trans-4-{[5-[2-(4-cyano-phenyl)-2H-pyrazol-3-yl]-4-methyl-2-oxo-3-(3-trifiuoromethyl-phenyl)-2,3-dihydro-imidazole-1-carbonyl]-amino}-cyclohexanecarbonyl)-piperidin-4-yl]-trimethyl-ammonium benzene sulfonate] was tested, and the pIC50 was greater than 9.00.
With Cc1c(-c2ccnn2-c2ccc(C#N)cc2)n(C(=O)N[C@H]2CC[C@H](C(=O)N(C)CC[N+](C)(C)C)CC2)c(=O)n1-c1cccc(C(F)(F)F)c1 [Example 89, {2-[(Trans-4-{[5-[2-(4-cyano-phenyl)-2H-pyrazol-3-yl]-4-methyl-2-oxo-3-(3-trifluoromethyl-phenyl)-2,3-dihydro-imidazole-1-carbonyl]-amino}-cyclohexanecarbonyl)-methyl-amino]-ethyl}-trimethyl-ammonium benzene sulfonate] the pIC50 was greater than 9.00.
Cc1c(-c2ccnn2-c2ccc(C#N)cc2)n(C(=O)N[C@H]2CC[C@H](C(=O)NC3CC[N+](C)(C)CC3)CC2)c(=O)n1-c1cccc(C(F)(F)F)c1 [Example 90, 4-[(Trans-4-{[5-[2-(4-cyano-phenyl)-2H-pyrazol-3-yl]-4-methyl-2-oxo-3-(3-trifluoromethyl-phenyl)-2,3-dihydro-imidazole-1-carbonyl]-amino}-cyclohexanecarbonyl)-amino]-1,1-dimethyl-piperidinium benzene sulfonate] gave a pIC50 greater than 9.00.
Compound Cc1c(-c2ccnn2-c2ccc(C#N)cc2)n(C(=O)N[C@@H](C)C(=O)N(C)C2CC[N+](C)(C)CC2)c(=O)n1-c1cccc(C(F)(F)F)c1 [Example 91, 4-[((S)-2-{[5-[2-(4-Cyano-phenyl)-2H-pyrazol-3-yl]-4-methyl-2-oxo-3-(3-trifluoromethyl-phenyl)-2,3-dihydro-imidazole-1-carbonyl]-amino}-propionyl)-methyl-amino]-1,1-dimethyl-piperidinium benzene sulfonate] has a pIC50 greater than 9.00.
Cc1c(-c2ccnn2-c2ccc(C#N)cc2)n(C(=O)NC2CCN(C(=O)NCC[N+](C)(C)C)CC2)c(=O)n1-c1cccc(C(F)(F)F)c1 [Example 92, {2-[(4-{[5-[2-(4-Cyano-phenyl)-2H-pyrazol-3-yl]-4-methyl-2-oxo-3-(3-trifluoromethyl-phenyl)-2,3-dihydro-imidazole-1-carbonyl]-amino}-piperidine-1-carbonyl)-amino]-ethyl}-trimethyl-ammonium benzene sulfonate] showed a pIC50 greater than 9.00.
Cc1c(-c2ccnn2-c2ccc(C#N)cc2)n(C(=O)NC2CCN(C(=O)OCC[N+](C)(C)C)CC2)c(=O)n1-c1cccc(C(F)(F)F)c1 [Example 93, [2-(4-{[5-[2-(4-Cyano-phenyl)-2H-pyrazol-3-yl]-4-methyl-2-oxo-3-(3-trifluoromethyl-phenyl)-2,3-dihydro-imidazole-1-carbonyl]-amino}-piperidine-1-carbonyloxy)-ethyl]-trimethyl-ammonium benzene sulfonate] was tested, and the pIC50 was greater than 9.00.
Cc1c(-c2nccn2-c2ccc(C#N)cc2)n(C(=O)NC2CCN(C(=O)C[N+](C)(C)C)CC2)c(=O)n1-c1cccc(C(F)(F)F)c1 [Example 94, [2-(4-{[1-(4-Cyano-phenyl)-5′-methyl-2′-oxo-1′-(3-trifluoromethyl-phenyl)-1′,2′-dihydro-1H-[2,4′]biimidazolyl-3′-carbonyl]-amino}-piperidin-1-yl)-2-oxo-ethyl]-trimethyl-ammonium benzene sulfonate] was tested, and the pIC50 was greater than 9.00.
